Laboratory results taken from ChEMBL document CHEMBL5729420, “Substituted imidazo[1,2-c]pyrimidines as PRC2 inhibitors” (2022).

Biological target: Histone-binding protein RBBP4/Polycomb protein EED/Polycomb protein SUZ12/Zinc finger protein AEBP2 (Homo sapiens, UniProt O75530+Q09028+Q15022+Q6ZN18)
Assay: Enzymatic Activity Assay: An aliquot of each serial dilution of test compound was added to deep 384 well plate using Acoustic Technology instrument (Echo 550, LabCyte) containing reaction buffer (50 mM Tris-HCl (pH 8), 0.01% Brij35, 1 mM EDTA, 1 mM DTT, 1 mM PMSF and 1% DMSO), 10 nM purified PRC2 complex and 0.05 mg/ml core histone H3 in a 5 μl volume. The reaction was mixed gently and then pre-incubated for 20 min at 30° C. The enzymatic reaction was initiated by adding 1 uM S-Adenosyl-L-[methyl-3H]methionine and incubated for 1 hr at 30° C. After 1 hr, the reaction product was detected using a filter binding method and the amount of tritiated H3 core histone was quantitated using a scintillation counter.
Assay type: protein-complex assay

Sequence of Histone-binding protein RBBP4/Polycomb protein EED/Polycomb protein SUZ12/Zinc finger protein AEBP2 (O75530 whole entry): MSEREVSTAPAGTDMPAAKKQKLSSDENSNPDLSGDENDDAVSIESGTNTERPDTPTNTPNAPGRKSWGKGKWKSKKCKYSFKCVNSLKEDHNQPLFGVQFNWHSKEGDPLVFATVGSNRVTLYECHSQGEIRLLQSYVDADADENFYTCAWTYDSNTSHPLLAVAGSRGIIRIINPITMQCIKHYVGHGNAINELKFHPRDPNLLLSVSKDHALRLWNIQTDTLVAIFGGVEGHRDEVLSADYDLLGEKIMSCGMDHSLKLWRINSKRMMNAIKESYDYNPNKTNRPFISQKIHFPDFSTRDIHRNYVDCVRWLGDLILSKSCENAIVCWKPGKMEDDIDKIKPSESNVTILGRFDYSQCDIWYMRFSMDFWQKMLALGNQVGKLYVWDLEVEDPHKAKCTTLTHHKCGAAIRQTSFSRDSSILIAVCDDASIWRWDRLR
Sequence of Histone-binding protein RBBP4/Polycomb protein EED/Polycomb protein SUZ12/Zinc finger protein AEBP2 (Q15022 whole entry): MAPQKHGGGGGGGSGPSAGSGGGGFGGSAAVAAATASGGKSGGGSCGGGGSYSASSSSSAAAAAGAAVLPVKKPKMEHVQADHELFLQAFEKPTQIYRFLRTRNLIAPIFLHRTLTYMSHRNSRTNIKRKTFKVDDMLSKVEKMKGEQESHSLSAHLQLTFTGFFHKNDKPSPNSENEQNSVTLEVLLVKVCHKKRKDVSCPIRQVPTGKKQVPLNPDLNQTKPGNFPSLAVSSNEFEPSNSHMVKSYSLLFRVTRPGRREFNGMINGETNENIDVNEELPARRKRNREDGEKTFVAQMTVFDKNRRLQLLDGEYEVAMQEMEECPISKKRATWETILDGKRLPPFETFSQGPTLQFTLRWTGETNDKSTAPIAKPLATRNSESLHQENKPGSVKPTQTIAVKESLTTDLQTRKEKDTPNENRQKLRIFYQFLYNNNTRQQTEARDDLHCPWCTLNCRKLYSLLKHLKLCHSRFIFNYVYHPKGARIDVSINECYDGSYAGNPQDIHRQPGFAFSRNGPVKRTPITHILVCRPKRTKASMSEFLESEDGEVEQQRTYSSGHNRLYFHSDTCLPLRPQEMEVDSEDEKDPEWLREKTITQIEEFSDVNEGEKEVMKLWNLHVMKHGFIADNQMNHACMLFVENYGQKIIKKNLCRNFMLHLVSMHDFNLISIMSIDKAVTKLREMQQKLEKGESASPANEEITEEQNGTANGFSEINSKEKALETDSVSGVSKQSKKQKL
Sequence of Histone-binding protein RBBP4/Polycomb protein EED/Polycomb protein SUZ12/Zinc finger protein AEBP2 (Q6ZN18 whole entry): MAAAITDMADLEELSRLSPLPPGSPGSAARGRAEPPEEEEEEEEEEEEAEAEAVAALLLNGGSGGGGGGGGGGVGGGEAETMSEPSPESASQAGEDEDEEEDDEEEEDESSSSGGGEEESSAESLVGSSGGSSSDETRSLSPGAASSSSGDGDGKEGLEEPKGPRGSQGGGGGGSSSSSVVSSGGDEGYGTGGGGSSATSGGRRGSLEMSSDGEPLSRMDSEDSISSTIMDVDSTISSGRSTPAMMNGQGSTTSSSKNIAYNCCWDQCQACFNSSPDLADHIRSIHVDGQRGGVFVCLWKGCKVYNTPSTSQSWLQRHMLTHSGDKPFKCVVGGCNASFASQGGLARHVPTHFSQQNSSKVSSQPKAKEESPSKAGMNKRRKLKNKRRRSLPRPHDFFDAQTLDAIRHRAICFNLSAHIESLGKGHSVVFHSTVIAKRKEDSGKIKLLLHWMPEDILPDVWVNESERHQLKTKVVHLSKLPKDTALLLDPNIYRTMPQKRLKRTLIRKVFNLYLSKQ
Sequence of Histone-binding protein RBBP4/Polycomb protein EED/Polycomb protein SUZ12/Zinc finger protein AEBP2 (Q09028 whole entry): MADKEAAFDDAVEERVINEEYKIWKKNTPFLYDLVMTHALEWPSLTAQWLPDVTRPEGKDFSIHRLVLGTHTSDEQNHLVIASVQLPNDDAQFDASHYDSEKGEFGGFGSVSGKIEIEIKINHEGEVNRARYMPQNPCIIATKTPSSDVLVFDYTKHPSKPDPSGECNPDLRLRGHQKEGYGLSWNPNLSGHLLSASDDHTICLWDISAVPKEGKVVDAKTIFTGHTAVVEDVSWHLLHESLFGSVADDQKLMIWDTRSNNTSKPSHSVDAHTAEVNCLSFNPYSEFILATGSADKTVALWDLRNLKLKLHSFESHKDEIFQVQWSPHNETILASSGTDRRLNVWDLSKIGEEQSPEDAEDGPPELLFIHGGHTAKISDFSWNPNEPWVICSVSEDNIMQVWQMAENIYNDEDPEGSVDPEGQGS

## Cc1cc(-c2cnc(NCc3c(F)ccc4c3CCCO4)n3cc(C#N)nc23)n(C)n1
  IC50: > 500 nM
